The compounds below were run against T1, human oxytocin receptor (Homo sapiens, UniProt P30559) (assay: Oxytocin binding in CHO cell membranes expressing human oxytocin receptors ([3H]oxytocin radioligand binding)). Conditions: @ 100 nM, read-out: OT % inhibition @ 100 nM.
T1 construct: host or cells: CHO cells, pcDNA3.1 vector
T1 sequence (P30559 1-389): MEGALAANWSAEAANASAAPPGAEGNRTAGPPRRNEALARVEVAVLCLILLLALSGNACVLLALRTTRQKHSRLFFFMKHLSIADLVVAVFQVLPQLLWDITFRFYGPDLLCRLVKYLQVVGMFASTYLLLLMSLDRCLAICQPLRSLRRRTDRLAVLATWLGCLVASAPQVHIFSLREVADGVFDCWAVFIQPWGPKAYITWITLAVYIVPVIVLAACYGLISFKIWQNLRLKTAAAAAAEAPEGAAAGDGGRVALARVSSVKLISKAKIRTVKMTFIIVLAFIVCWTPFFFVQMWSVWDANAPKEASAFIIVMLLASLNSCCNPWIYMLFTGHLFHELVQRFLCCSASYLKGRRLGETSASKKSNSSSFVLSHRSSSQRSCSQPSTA
Source text: Oxytocin Binding in Chinese Hamster Ovary Cell Membranes Expressing Human Oxytocin Receptors
Chinese Hamster Ovary (CHO) cells stably transfected with the human oxytocin receptor (cf. Tanizawa et al., U.S. Pat. No. 5,466,584 (1995) to Rohto Pharmaceutical Co. Ltd., Osaka, Japan) were obtained from M. Thibonnier, Case Western Reserve University School of Medicine, Cleveland, Ohio.
A. Passaging and Amplification of Cells
CHO cells transfected with the human oxytocin receptors obtained from M. Thibonnier (pcDNA3.1 vector) are allowed to grow to confluency (approx. >90%) in T-150 flasks under sterile conditions, in a cell culture medium of F-12 Nutrient Mixture (HAM) with L-glutamine (Gibco Cat. #11765-054) containing 15 mM HEPES (Gibco Cat. #15630-080), 1% antibiotic/antimycotic (add 5 mL 100×, Gibco Cat. #15240-062 per 500 mL F-12), 400 μg/mL of Geneticin (add 4 mL of 50 mg/mL per 500 mL F-12) and 10% Fetal Bovine Serum (Qualified, heat inactivated, Gibco Cat. #16140-063). The medium is removed by aspiration and the cells are washed with 10 mL of Hank's Balanced Salt solution (Gibco Cat. #14175-095). The salt solution is removed by aspiration and the cells trypsinized with 5 mL of trypsin-EDTA (0.05% trypsin, 0.53 mM EDTA-4Na, Gibco Cat. #25300-070) for 1 min. The trypsin is removed by aspiration and the cells dislodged by tapping. Cell Culture medium (e.g. 30 mL for 1:30 split) is immediately added and mixed well to inactivate trypsin. 1 mL of detached cells is added to new culture flasks containing fresh Cell Culture medium (e.g. into 25 mL per T-150 flask), and mixed gently. The cells are incubated at 37° C. in 5% CO2. The medium is changed at 3 to 4 days interval (or as appropriate). The cells grow to confluency (approx. >75%-95%) within 7-8 days. All steps are done under sterile conditions.
The cells are washed twice gently with Hank's Balanced Salt solution (e.g., use 10 mL per T-1 50 flask). The excess solution is removed and the cells bathed for 15-30 min. in an enzyme-free Cell Dissociation Buffer (e.g., use 8 mL Hank's Based, Gibco Cat. #13150-016 per T-150 flask) until cells are loosened. The contents are transferred to centrifuge tubes (50 mL size) kept in ice bath. All subsequent steps are done at 4° C. The tubes are centrifuged at 300×g for 15 min (1380 rpm on SORVAL, Model RT6000D, using rotor for 50 mL tubes). The supernatant is discarded and the cells suspended in homogenizing buffer (10 mM Tris-HCl containing 0.25 M sucrose and 1 mM EDTA, pH 7.4) ensuring that the volume of the buffer is about ten times the volume of the cell pellet. The cells are pooled into a centrifuge tube (50 mL) and homogenized with a Polytron at setting 6 for 10 sec. The homogenate is transferred into a Potter-Elvjehm homogenizer and homogenized with 3 strokes. The homogenate is centrifuged at 1500×g for 10 min at 4° C. (3100 rpm using SORVAL, model RT6000D, using rotor for 50 mL tubes). The pellet is discarded. The supernatant is centrifuged at 100,000×g for 60 min. at 4° C. (Beckman L8-80M ultracentrifuge; spin at 37,500 rpm with rotor type 70 Ti for 50 mL tubes; 38,000 rpm with type 80Ti for 15 mL tubes; or 35,800 rpm with rotor type 45Ti). The supernantant is discarded and the pellet suspended in 3 to 4 mL of Tris buffer (50 mM TRIS—HCl, pH 7.4). The protein content is estimated by the Bradford or Lowry method. The volume of the membrane suspension is adjusted with the membrane buffer (50 mM Tris-HCl containing 0.1% BSA and 0.1 mM PMSF) to give 3.0 mg/mL (or as appropriate) of protein. The membranes are aliquoted and stored at −70° C.
C. Radioligand Binding Assay
In wells of a 96-well format microtiter plate, is added 90, 110 or 130 μL (to make up a final volume of 200 μL) of assay buffer containing 50 mM of Tris-HCl (pH 7.4), […], 1 mg % aprotinin, 1 mg % leupeptin, 2 mg % 1,10-phenanthroline, 10 mg % trypsin inhibitor, and 0.1 mM PMSF. […]

inhibition at 0.1 µM [%]	Structure (SMILES)
20	O=C(c1ccc2n1Cc1ccccc1N(C(=O)c1ccc(-c3cccc4ccccc34)cc1Cl)C2)N1CCN(CCO)CC1 [Example 25, 2-{4-[10-{[2-Chloro-4-(naphthalen-1-yl)phenyl]carbonyl}-(10,11-dihydro-5H-pyrrolo[2,1-c][1,4]benzodiazepin-3-yl)carbonyl]piperazine-1-yl}-1-hydroxyethane]
53	COc1cc2c(cc1OC)N(C(=O)c1ccc(-c3ccccc3OC)c(C)c1)Cc1ccc(C(=O)N(C)C[C@H](O)[C@@H](O)[C@H](O)[C@H](O)CO)n1C2 [Example 37, 7,8-Dimethoxy-10-[(2′-methoxy-2-methyl-[1,1′-biphenyl]-4-yl)carbonyl]-10,11-dihydro-5H-pyrrolo[2,1-c][1,4]benzodiazepine-3-carboxylic acid methyl-[(2S, 3R, 4R, 5R)-2,3,4,5,6-pentahydroxy-hexyl)-amide]
93	COc1ccccc1-c1ccc(C(=O)N2Cc3ccc(C(=O)N4CCN(CCO)CC4)n3Cc3ccccc32)cc1C [Example 40, [4-(2-Hydroxyethyl)-1-piperazinyl]{10-[(2′-methoxy-2-methyl[1,1′-biphenyl]-4yl)carbonyl]-10,11-dihydro-5H-pyrrolo[2,1-c][1,4]benzodiazepin-3-yl}methanone]
71	COc1cc(C(=O)N2Cc3ccc(C(=O)N4CCN(CCO)CC4)n3Cc3ccccc32)ccc1-c1cccc2ccccc12 [Example 41, [4-(2-Hydroxyethyl)-1-piperazinyl]{10-[3-methoxy-4-(1-naphthyl)benzoyl]-10,11-dihydro-5H-pyrrolo[2,1-c][1,4]benzodiazepin-3-yl}methanone]
89	COc1cc(C(=O)N2Cc3ccc(C(=O)N4CCN(CCO)CC4)n3Cc3ccccc32)ccc1-c1ccccc1C [Example 42, [4-(2-Hydroxyethyl)-1-piperazinyl]{10-[(2-methoxy-2′-methyl[1,1′-biphenyl]-4yl)carbonyl]-10,11-dihydro-5H-pyrrolo[2,1-c][1,4]benzodiazepin-3-yl}methanone]

Continued, compound first:

Structure (SMILES)	inhibition at 0.1 µM [%]
COc1cc2c(cc1OC)N(C(=O)c1ccc(-c3ccccc3C(F)(F)F)c(C)c1)Cc1ccc(C(=O)N(C)CC(O)CO)n1C2 (stereo not drawn) [Example 18, N-(2,3-Dihydroxypropyl)-7,8-dimethoxy-N-methyl-10-{[2-methyl-2′-trifluoromethyl-[1,1′-biphenyl]-4-yl]carbonyl}-10,11-dihydro-5H-pyrrolo[2,1-c][1,4]benzodiazepine-3-carboxamide]	36
COc1cc2c(cc1OC)N(C(=O)c1ccc(-c3ccccc3C(F)(F)F)c(C)c1)Cc1ccc(C(=O)N(CCO)CCO)n1C2 [Example 19, N,N-Bis(2-Hydroxyethyl)-7,8-dimethoxy-10-{[2-methyl-2′-trifluoromethyl-[1,1′-biphenyl]-4-yl]carbonyl}-10,11-dihydro-5H-pyrrolo[2,1-c][1,4]benzodiazepine-3-carboxamide]	27

Same assay, conditions: value printed in parentheses, read-out: OT (IC50)

IC50 [nM]	Structure (SMILES)
1.47	COc1cc(C(=O)N2Cc3ccc(C(=O)N(C)CC(O)CN(C)C)n3Cc3ccccc32)ccc1-c1ccccc1C(F)(F)F (stereo not drawn) [Example 22, N-[(3-Dimethylamino)-2-hydroxy-propyl]-10-{[2-methoxy-2′-trifluoromethyl-[1,1′-biphenyl]-4-yl]carbonyl}-N-methyl-10,11-dihydro-5H-pyrrolo[2,1-c][1,4]benzodiazepine-3-carboxamide]
55.8	Cc1ccc(-c2ccc(C(=O)N3Cc4ccc(C(=O)N(C)CC(O)CO)n4Cc4ccccc43)cc2)c2ccccc12 (stereo not drawn) [Example 26, 10-{[4-(4-Methyl-naphthalen-1-yl)phenyl]carbonyl}-10,11-dihydro-5H-pyrrolo[2,1-c][1,4]benzodiazepine-3-carboxylic acid (2,3-dihydroxy-propyl)-N-methylamide]
3	COc1cc(-c2ccccc2C)c(Cl)cc1C(=O)N1Cc2ccc(C(=O)N3CCN(CCO)CC3)n2Cc2ccccc21 [Example 39, {10-[(6-Chloro-3-methoxy-2′-methyl[1,1′-biphenyl]-4-yl)carbonyl]-10,11-dihydro-5H-pyrrolo[2,1-c][1,4]benzodiazepin-3-yl}[4-(2-hydroxyethyl)-1-piperazinyl]methanone]

The next lines start with the compound.

Structure (SMILES)	IC50 [nM]
CC(=O)OCC(CN(C)C(=O)c1ccc2n1Cc1ccccc1N(C(=O)c1ccc(-c3ccccc3C(F)(F)F)c(C)c1)C2)OC(C)=O (stereo not drawn) [Example 13, 2-(Acetyloxy)-1-({methyl[(10-{[2-methyl-2′-trifluoromethyl-[1,1′-biphenyl]-4-yl]carbonyl}-10,11-dihydro-5H-pyrrolo[2,1-c][1,4]benzodiazepin-3-yl)carbonyl]amino}methyl)ethyl acetate]	9.16
COc1ccccc1-c1ccc(C(=O)N2Cc3ccc(C(=O)N(C)CC(O)CO)n3Cc3ccccc32)cc1C (stereo not drawn) [Example 14, 10-[(2′-Methoxy-2-methyl-[1,1′-biphenyl]-4-yl)carbonyl]-10,11-dihydro-5H-pyrrolo[2,1-c][1,4]benzodiazepine-3-carboxylic acid (2,3-dihydroxy-propyl)-methyl-amide]	1.9
COc1ccccc1-c1ccc(C(=O)N2Cc3ccc(C(=O)N(C)C[C@H](O)[C@@H](O)[C@H](O)[C@H](O)CO)n3Cc3ccccc32)cc1C [Example 17, 10-[(2′-Methoxy-2-methyl-[1,1′-biphenyl]-4-yl)carbonyl]-10,11-dihydro-5H-pyrrolo[2,1-c][1,4]benzodiazepine-3-carboxylic acid methyl-[(2S,3R,4R, 5R)-2,3,4,5,6-pentahydroxy-hexyl)-amide]	1.03
COc1cc(-c2ccccc2C(F)(F)F)c(Cl)cc1C(=O)N1Cc2ccc(C(=O)N(C)C[C@H](O)[C@@H](O)[C@H](O)[C@H](O)CO)n2Cc2ccccc21 [Example 20, 10-{[6-Chloro-3-methoxy-2′-trifluoromethyl-[1,1′-biphenyl]-4-yl]carbonyl}-N-methyl-N-[(2S,3R,4R,5R)-2,3,4,5,6-pentahydroxyhexyl]-10,11-dihydro-5H-pyrrolo[2,1-c][1,4]benzodiazepine-3-carboxamide]	1.09
COc1cc(C(=O)N2Cc3ccc(C(=O)N(C)CC(O)CO)n3Cc3ccccc32)ccc1-c1ccccc1C(F)(F)F (stereo not drawn) [Example 21, N-(2,3-Dihydroxypropyl)-10-{[2-methoxy-2′-trifluoromethyl-[1,1′-biphenyl]-4-yl]carbonyl}-N-methyl-10,11-dihydro-5H-pyrrolo[2,1-c][1,4]benzodiazepine-3-carboxamide]	1.73
